Measured values as given in US8697639B2, “Compositions and methods for treating bacteria” (Biosynexus Incorporated, priority 2005, dated 2014).
Bridge positions count the residues as written; N and C are the ends. Square brackets hold non-standard residues; d marks the D form. Peptide text beside a SMILES is read from it. * marks the point of attachment. Ileψ(thiazoline)Cys = CC[C@H](C)[C@H](N)C1=N[C@H](C(=O)*)CS1; dOrn = NCCC[C@@H](N)C(=O)O

Assays:
[1] = test system: S. aureus; experiment: Mouse skin infection model: S. aureus infection in abraded mouse skin treated with topical ointment; format: in vivo; settings: for synergy with mupirocin in the skin infection model (in words): combination with mupirocin; for synergy with mupirocin in the skin infection model (in words) / synergy or additive effect with nisin in the skin infection model (in words): superficial wound model; for synergy or additive effect with nisin in the skin infection model (in words): combination with nisin
Protocol: (§1) Mouse Skin Infection Model: An overnight culture of S. aureus grown in tryptic soy broth (SA8; range from 1 to 6×10^9 CFUs/mL) was centrifuged at 4000×g for 10 minutes and resuspended in an equal volume of phosphate buffered saline (PBS). The bacteria were diluted to a percent transmittance of 40 (Spectronic 20D+) and diluted a subsequent 1:1000 in PBS for a final bacteria concentration of about 3×10^5. SKH1 (hrhr) hairless mice (Charles River) were sedated with 0.2 mL of ketamine (80 mg/kg) and xylazine (32 mg/kg) delivered intraperitoneally. The upper back of the mice were scrubbed with a 70% alcohol wipe and allowed to dry. Fine abrasions were made on the backs of the mice between the shoulders using 150 grit sandpaper. Bacteria were swabbed over the abraded area with a sterile, cotton-tipped applicator until the area was saturated with the solution.
Topical Ointment: 74 g of PEG 400 and 24 g of PEG 3350 were added to a 250 mL glass beaker and heated until all of the PEG 3350 was melted. […] Lysostaphin was first dissolved to a concentration of about 150 mg/mL in DI water before mixing into the ointment to give a final concentration of 2% (w/w).
Treatment of Infected Skin with Topical Ointment: Treatments aimed to eradicate S. aureus skin infections in the mouse model were started on the morning after infection (Day 1). […] The mice were sacrificed by CO2 asphyxiation on the morning of Day 3 and a 0.5-cm^2 patch of skin around the infected area was excised. The skin sample was disected and placed into a test tube containing 1 mL of 5 mg/mL proteinase K, 20 mg/mL esterase, and 20 mg/mL activated charcoal in PBS to neutralize the activity of the antibacterial agents. Bacteria were dislodged from the skin sample by sonication: 2 minute treatments per sample with alternating 5 seconds at 3 W and 5 seconds at 0 W in a Virsonic 600 with microtip (VirTis). After mixing by vortex, 50 μL of each sample was streaked onto blood agar plates, incubated at 37° C. overnight, and the colonies were counted and compared to untreated controls.
For the following data, except where noted in FIG. 2, all antibiotic formulations were in a common polyethylene glycol (PEG) ointment (PEG 400 plus PEG 3350).

[2] = test system: S. aureus; experiment: Suture skin infection model (deep tissue infection) in mouse; format: in vivo; settings: deep cut, FIG. 13
Protocol: It was determined whether nisin and mupirocin, either alone or in combination with each other, would be able to treat S. aureus in a deep tissue infection model. A suture skin infection model was generated in which a deep cut (e.g., one needing sutures to close) was made in a mouse and S. aureus introduced into the incision. […] Thus, a combination of nisin and mupirocin can be used to treat a deep tissue infection as well as a […] infection.

[3] = test system: S. aureus; experiment: In vitro MIC of nisin alone or in combination (log reduction of viable S. aureus); format: cell-based; settings: FIG. 11
Protocol: In order to determine if nisin could function in a synergistic way with other antimicrobials to treat (e.g., kill and/or inhibit growth of) bacteria in vitro, the minimum inhibitory concentration (MIC) of nisin alone or nisin in combination with either mupirocin, neomycin or gentamicin were tested. The MIC was determined by calculating the log reduction of viable S. aureus following incubation with the amounts of nisin and other antimicrobials as indicated in FIG. 11.

[4] = test system: Staphylococcus aureus ATCC #6538; experiment: Pig partial thickness wounds inoculated with Staphylococcus aureus; format: in vivo
[5] = test system: P. aeruginosa; settings: previously shown; cited from earlier work
[6] = test system: S. aureus strain resistant to mupirocin; experiment: Mupirocin-resistant S. aureus infection in abraded mouse skin; format: in vivo; settings: FIG. 3
Protocol: as §1
Topical Ointment: 74 g of PEG 400 and 24 g of PEG 3350 were added to a 250 mL glass beaker and heated until all of the PEG 3350 was melted. […]
Treatment of Infected Skin with Topical Ointment: Treatments aimed to eradicate S. aureus skin infections in the mouse model were started on the morning after infection (Day 1). […] After mixing by vortex, 50 μL of each sample was streaked onto blood agar plates, incubated at 37° C. overnight, and the colonies were counted and compared to untreated controls.

[7] = test system: P. aeruginosa; experiment: P. aeruginosa infection in abraded mouse skin; format: in vivo; settings: FIG. 4

Row | Compound | synergy with mupirocin in the skin infection model (in words) [1] | synergy with nisin in vitro (in words) [3] | synergy or additive effect with nisin in the skin infection model (in words) [1] | other results
1 | CC[C@H](C)[C@H](N)C1=N[C@H](C(=O)N[C@@H](CC(C)C)C(=O)N[C@H](CCC(=O)O)C(=O)N[C@H](C(=O)N[C@H]2CCCCNC(=O)[C@H](CC(N)=O)NC(=O)[C@@H](CC(=O)O)NC(=O)[C@H](Cc3cnc[nH]3)NC(=O)[C@@H](Cc3ccccc3)NC(=O)[C@H]([C@@H](C)CC)NC(=O)[C@@H](CCCN)NC2=O)[C@@H](C)CC)CS1 [bacitracin] ({Ileψ(thiazoline)Cys}-L[dE]IK[dOrn]I[dF]H[dD]N; lactam 4-C) | did not synergize | – | – | –
2 | C/C(=C\C(=O)OCCCCCCCCC(=O)O)C[C@@H]1OC[C@H](C[C@@H]2O[C@H]2[C@@H](C)[C@H](C)O)[C@@H](O)[C@H]1O [mupirocin] | – | does not synergize | – | efficacy in treating S. aureus in suture infection model (in words) [2]: very little efficacy; Staphylococcus aureus recovered from wounds ([4]; Day 7 post treatment, FIG. 8): 1.63 Log cfu/ml; Staphylococcus aureus recovered from wounds ([4]; two days after initial treatment, treated twice per day, FIG. 6): 4.96±0.8 Log CFU/ml; activity against P. aeruginosa (in words) [5]: poor activity; decrease of infectious CFUs ([1]; abraded mouse skin, PEG ointment 3 times a day on Days 1 and 2, FIG. 1, for combinations: residual infections): 3 logs; activity against mupirocin-resistant S. aureus (in words) [6]: minimal activity; activity relative to nisin formulation (in words) [7]: does not add any additional activity
3 | gallidermin | did synergize | – | did not synergize | –
4 | gentamicin | – | does not synergize | did synergize | –
5 | neomycin | – | does not synergize | did not synergize | –
